Columns and labels:
Format in all cases: cell-based
ALDH1a3 [1] = biological target: T1, ALDH1a3 (Homo sapiens, UniProt P47895); assay: ALDEFLUOR assay in SUM159 cells expressing ALDH isoforms 1a1, 1a2, 1a3, 3a1; conditions: SUM159 cells expressing ALDH 1a1, 1a2, 1a3 or 3a1
T1 construct: lentiviral vectors containing either the vector backbone or full-length human Aldh1a3; expressed in transfected cells; host or cells: SUM159-M1a (A1) and SUM159 (A7) breast cancer cells, lentiviral pLex vector, puromycin selection
T1 sequence (P47895 1-512): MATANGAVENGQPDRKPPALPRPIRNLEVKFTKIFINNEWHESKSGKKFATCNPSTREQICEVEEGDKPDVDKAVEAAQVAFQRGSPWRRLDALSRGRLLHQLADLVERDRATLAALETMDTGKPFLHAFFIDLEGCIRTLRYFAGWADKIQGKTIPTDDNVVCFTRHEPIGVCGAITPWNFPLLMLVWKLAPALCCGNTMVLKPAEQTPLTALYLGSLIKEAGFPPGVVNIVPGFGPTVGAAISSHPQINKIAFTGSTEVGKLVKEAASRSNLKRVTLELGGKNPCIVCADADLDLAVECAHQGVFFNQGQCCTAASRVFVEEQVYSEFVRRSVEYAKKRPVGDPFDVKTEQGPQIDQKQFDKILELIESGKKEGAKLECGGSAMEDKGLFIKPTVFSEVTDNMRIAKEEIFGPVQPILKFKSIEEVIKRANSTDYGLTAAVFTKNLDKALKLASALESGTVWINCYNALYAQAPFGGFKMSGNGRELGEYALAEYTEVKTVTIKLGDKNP
Method: (§1) The coding sequences of Aldh1a1, Aldh1a2, Aldh1a3 and Aldh3a1 were cloned from cDNA made from pooled human reference RNA samples. Cloned sequences flanked by Age1 and Xho1 restriction sites were inserted into the pLex lentiviral plasmid. Clones were sequenced and compared against NCBI expressed sequence tags (ESTs) for accuracy. Viral production of each enzyme was performed by transfection into the 293T packaging cell line using PEI along with PsPax2 and VSVG packaging vectors. Viruses were collected and filtered at 0.45 μm, then cells were transduced using polybrene (8 μg/mL) for 12 hours, followed by culture with 1 μg/mL puromycin for the duration of experiments. All viral transduction and selection was performed on a cell population-wide basis.
(§2) Cells were counted, centrifuged and resuspended at 1,000,000 cells/mL in ALDEFLUOR™ buffer (Stemcell Technologies). ALDEFLUOR™ substrate (Stemcell Technologies, 1:200) and test compound or 1 mM DEAB were added to cell suspension and incubated at 37° C. for 45 minutes with vortexing every 15 minutes. Cells were centrifuged and resuspended in ALDEFLUOR™ buffer with DAPI at 5 μg/mL. Samples were analyzed with the BD LSR2 flow cytometry platform. Gating was performed using DEAB as a negative control.
ALDH isoforms 1a1, 1a2, 1a3 and 3a1 were expressed in MCF7 or SUM159 cells, which were subsequently used in an ALDEFLUOR™ assay.

Aldh1a2 = biological target: T2, Aldh1a2 (Homo sapiens, UniProt O94788); assay: ALDEFLUOR assay in 293T cells transiently transfected with human Aldh1a2; conditions: concentrations below 10 μM
T2 construct: expressed in transfected cells; host or cells: 293T, transient transfection
T2 sequence (O94788 1-518): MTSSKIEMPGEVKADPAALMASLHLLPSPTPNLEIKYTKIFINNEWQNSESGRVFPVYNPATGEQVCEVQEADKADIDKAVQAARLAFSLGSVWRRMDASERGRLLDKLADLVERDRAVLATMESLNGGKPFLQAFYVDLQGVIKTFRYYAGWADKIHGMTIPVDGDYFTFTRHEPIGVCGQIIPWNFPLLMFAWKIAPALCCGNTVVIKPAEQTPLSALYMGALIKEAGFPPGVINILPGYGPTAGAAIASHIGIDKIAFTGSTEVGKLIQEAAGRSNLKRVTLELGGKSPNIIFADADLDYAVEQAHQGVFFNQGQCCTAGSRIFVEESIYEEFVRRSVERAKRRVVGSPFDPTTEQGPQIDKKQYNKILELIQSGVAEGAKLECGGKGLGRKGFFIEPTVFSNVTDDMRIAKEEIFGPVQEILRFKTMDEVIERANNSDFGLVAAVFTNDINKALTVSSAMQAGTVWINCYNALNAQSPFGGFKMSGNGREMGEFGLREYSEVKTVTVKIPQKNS
Method: as §1, §2

ALDH1a3 [2] = biological target: T3, ALDH1a3 (Homo sapiens, UniProt P47895); assay: ALDEFLUOR assay in cell lines of a variety of cancer types; conditions: ALDEFLUOR-positive cells, various cancer cell lines
T3 construct: endogenous in cells; host or cells: panel of cancer cell lines (e.g. Sum159-M1a, MDA-MB-468 and others of b212)
T3 sequence (P47895 2-512): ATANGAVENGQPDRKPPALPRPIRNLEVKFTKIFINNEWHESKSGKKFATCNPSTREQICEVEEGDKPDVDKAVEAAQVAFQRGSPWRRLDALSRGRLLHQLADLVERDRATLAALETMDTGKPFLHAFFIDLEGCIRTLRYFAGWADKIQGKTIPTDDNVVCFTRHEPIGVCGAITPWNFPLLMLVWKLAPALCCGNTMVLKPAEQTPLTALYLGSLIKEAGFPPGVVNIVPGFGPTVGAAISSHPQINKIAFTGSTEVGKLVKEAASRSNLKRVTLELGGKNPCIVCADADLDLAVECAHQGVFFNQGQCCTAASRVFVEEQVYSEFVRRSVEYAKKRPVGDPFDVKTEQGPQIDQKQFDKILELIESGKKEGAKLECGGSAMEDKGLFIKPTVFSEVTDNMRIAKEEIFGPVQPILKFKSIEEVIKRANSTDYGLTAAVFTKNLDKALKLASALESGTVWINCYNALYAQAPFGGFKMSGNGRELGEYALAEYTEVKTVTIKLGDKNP
Source text: Cell lines were labeled with retroviral vectors with bi-cistronic expression of GFP/firefly luciferase to facilitate imaging and flow cytometry experiments. All cell lines were verified negative for mycoplasma contamination by monthly PCR analysis. No cells lines used here appear in the database of commonly misidentified cell lines (ICLAC). All cell lines were validated with STR analysis and compared to NCBI repository data.
as §2
A notable exception is liver cancer, where it is expected that a large ALDEFLUOR™-positive population exists, and is driven by ALDH1a1.

| Structure (SMILES) | isoform specificity, percentage of ALDEFLUOR-positive SUM159 cells (FIG. 13C) (ALDH1a3 [1]) | inhibition of Aldh1a2 activity (FIG. 2B) (Aldh1a2) | inhibition of ALDH1a3 activity in a variety of cancer types (FIG. 3A) (ALDH1a3 [2]) |
| --- | --- | --- | --- |
| CCc1ccccc1C(=O)Nc1cc2c(cc1F)NC(=O)CC2 [MBE1.5, 2-ethyl-N-(7-fluoro-2-oxo-1,2,3,4-tetrahydroquinolin-6-yl)benzamide] | specifically inhibits ALDH1a3 at concentrations below 10 μM | does not inhibit |  |
| CCc1cnccc1C(=O)Nc1cc2c(cc1F)NC(=O)CC2 [MBE1, 3-ethyl-N-(7-fluoro-2-oxo-1,2,3,4-tetrahydroquinolin-6-yl)isonicotinamide] |  |  | inhibited by MBE1 in many cancer types |
